Measured values from patent publication US20140097078A1, “DISTILLATION DEVICE AND METHOD” (GE HEALTHCARE LIMITED, priority 2011, published 2014).
Like-named read-outs stand apart in the source and are kept apart here.

How the values were obtained:
[1] = Radiolysis / stability of [18F]FET-βAG-TOCA: percentage of parent compound over time; assay type: physicochemical; conditions: for Percentage of parent compound at time: T = 0 / Percentage of parent compound at time: T = 120 m / Percentage of parent compound at time: T = 240 m: ~10 ml in 3-6% EtOH/PBS
Experimental: The use of higher levels of fluorine-18 (0.5-1 Curie) was also investigated. […] Although radiolysis occurred during isolation, once the product had been fully formulated (6% EtOH/PBS (10 mL)) it appeared to be stable up to 6 h. During this experiment, the EOS yield after aseptic filtration was 13%. The starting fluorine-18 was then reduced to see enough material could be isolated for a clinical dose, whilst at the same time reducing radiolysis.
Additional experiments attempted to add ascorbic acid to the existing HPLC eluent (0.5% w/v), add a sodium ascorbate solution to the HPLC fraction collection vial (5 mg/mL (5 mL)) and elute the tC18 cartridge with a sodium ascorbate/EtOH solution (5 mg/mL/1% EtOH). Unfortunately, due to addition of ascorbic acid to the HPLC eluent, the purification became inefficient, showing very little elution of the stable reagents. […] The isolated yield was also unaffected and gave EOS of 14%. To avoid this problem, ethanol was investigated as a replacement for the ascorbic acid. After some optimisation, a suitable solvent system was found (25% MeCN (0.1% HCl), 75% H2O (0.1% HCl)+0.8% w/v EtOH) which could be used to purify the material at the same time as reducing radiolysis (97% parent T=0 min (n=1)) (Entry 5, Table 2).

[2] = Entry 1, starting activity 1 Curie
[3] = Entry 2, starting activity 600 mCi
[4] = Entry 3, starting activity 500 mCi
[5] = Entry 4, starting activity 500 mCi
[6] = Entry 5, starting activity 500 mCi, EtOH-containing HPLC eluent

## βAG-TOCA
In the presence of BPDS
  time for which stable: ≤ 20 min
In the presence of CuSO4
  time for which stable: > 240 min
In the presence of Na-ascorbate
  time for which stable: ≤ 20 min

## [^18F]FET-βAG-TOCA
[1]; 1 Curie run, formulated in 6% EtOH/PBS (10 mL)
  time for which stable once fully formulated: ≥ 6 h
[1]; [2]
  Percentage of parent compound at time: T = 0: 60%
  Percentage of parent compound at time: T = 120 m: 60%
  Percentage of parent compound at time: T = 240 m: 60%
[1]; [3]
  Percentage of parent compound at time: T = 0: 91%
  Percentage of parent compound at time: T = 120 m: 91%
  Percentage of parent compound at time: T = 240 m: 91%
[1]; [4]
  Percentage of parent compound at time: T = 0: 96%
  Percentage of parent compound at time: T = 120 m: 96%
  Percentage of parent compound at time: T = 240 m: 96%
[1]; [5]
  Percentage of parent compound at time: T = 0: 97%
  Percentage of parent compound at time: T = 120 m: 97%
  Percentage of parent compound at time: T = 240 m: 97%
[1]; [6]
  Percentage of parent compound at time: T = 0: 97%
  Percentage of parent compound at time: T = 240 m: 97%
[1]; HPLC solvent 25% MeCN (0.1% HCl), 75% H2O (0.1% HCl)+0.8% w/v EtOH, n=1, Entry 5, Table 2
  parent at T=0 min: 97%
[1]; ascorbic acid in HPLC eluent (0.5% w/v), sodium ascorbate in collection vial and tC18 eluent
  parent at T=0 min: 97%
[1]; starting with 0.5 Curies of fluorine-18
  intact parent: 91%
[1]; starting with 1 Curie of fluorine-18, radiolysis during HPLC purification and tC18 formulation
  parent at T=0: 62%
